Laboratory results published in patent publication US20220273605A1, “COMPOSITIONS AND METHODS FOR TREATMENT OF PRESBYOPIA” (priority 2019, published 2022).

Test system: rabbits
Assay: Effect on pupil diameter in rabbit animal model (change from baseline)
Format: in vivo
Conditions: for reduction from baseline pupil diameter: dose of 1.25% w/w
Experimental: Dose solutions with concentration range of 0.25% to 4% pilocarpine were prepared and dosed in rabbits. The effect on pupil diameter was measured and recorded as the change from baseline.
Dose solutions with concentration range of 0.03% to 3% carbachol were prepared and dosed in rabbits. The effect on pupil diameter was measured and recorded as the change from baseline. […] The expected efficacious range of carbachol resulting in the aforementioned pupil size reduction would correspond to approximately 0.1 to 1% w/w carbachol (FIG. 2).

Row | SMILES | dose that most closely matches the optimum dose response measured for pilocarpine (20-30% pupil diameter reduction over 0.5 to 2 hours, about 10% up to 3 hours, tested 0.03% to 3%) | reduction from baseline pupil diameter (over 0.5 to 2 hours) | reduction from baseline pupil diameter (up to 3 hours)
1 | C[N+](C)(C)CCOC(N)=O.[Cl-] [carbachol, carbamoylcholine chloride] | approximately 0.6 % w/w |  | 
2 | CC[C@@H]1C(=O)OC[C@@H]1Cc1cncn1C [pilocarpine] |  | 20-30% | approximately 10%
